Assay results taken from paper PMC5004205, “Spiro[pyrrolidine-3, 3´-oxindole] as potent anti-breast cancer compounds: Their design, synthesis, biological evaluation and cellular target identification” (Scientific Reports, 2016).
“Also recorded” adds a separate entry of the source.

What was measured:
MCF10A cells = experiment: MTT cytotoxicity assay, MCF10A; assay type: cell-based
Experimental: MCF10A was obtained from American Tissue Type Culture Collection (ATCC, Bethesda, MD). All cells were grown in a humidified atmosphere at 37 °C, with 5% CO2 in air.
The MTT colorimetric viability assay was performed to evaluate the anticancer effect of compounds. 30,000 cells/100 μl of media were seeded per well and allowed to stretch and adhere overnight at 37 °C. Following day media was removed and 100 μl fresh media was added to the grown cells. Adhered cells were then treated with the compounds 5a-m dissolved in DMSO in triplicates at a standard concentration of 50 μM for 48 hours. There was one positive and one negative control along with 13 compounds. The results were measured all in triplicate in 45 wells of 96 well plate at each time point. Cytotoxic effect was evaluated using ability of live cells to cleave MTT ((3-[4, 5- dimethylthiazol-2-yl]-2, 5-diphenyl tetrazolium bromide)) (Sigma-Aldrich, St Louis, MO, USA), into formazan crystals. Post 48 hours of treatment, 10 μl of MTT (5 mg/ml in PBS) was added to the cells and incubated for 4 hours in dark at 37 °C. The violet colored crystals formed were then dissolved in 100 μl DMSO solvent (Dimethyl Sulfoxide, Sigma-Aldrich, St. Louis, MO, USA). The colorimetric assay was read by a MultiMode Plate Reader (Bio-Rad) at 595 nm. Percentage of Inhibition of drug was calculated by following formula: […]
Cytotoxicity assay with MCF 10A
Experiment :MCF10A cytotoxicity assay 48 hours
Raw Data{Wavelength:595.0}
O.D1 O.D2 O.D3 AVG CTRL-TEST CTRL-TST/CTRL*100
(1 picture or pasted object on this page, not shown here)

MCF-7 cells [1] = experiment: Cell migration (scratch) assay; assay type: cell-based; conditions: 24 hours, compared to untreated cells
Experimental: MCF-7 cells were grown to confluence in six-well tissue culture plastic dishes to a density of ∼0.2 million cells/well. After 24 hrs of seeding, cells were treated with chemical compounds. The medium was removed and the cells were scratched by 200 μL pipette micro tip through the center of the plate. The cultures were washed to remove debris and re-cultured with DMEM containing 10% FBS for cell migration. The cells were imaged at 24 hrs and the migrated distance was measured. Migration rate was calculated by counting five to seven fields per image and the results presented as the average of three independent experiments performed over multiple days.

MCF-7 cells [2] = experiment: DNA fragmentation (DNA-ladder) assay; assay type: cell-based; conditions: MCF-7, gel electrophoresis
Experimental: The DMSO (dimethyl sulphoxide)–SDS (sodium dodecyl sulphate)–TE (Tris-EDTA) method: 2 million MCF-7cells were taken as starting material for DNA isolation. Cells were dislodged with Trypsin-EDTA and washed with 1 X PBS. DMSO was added directly to the cell pellet (100 μl) and mixed well by pipetting. TE buffer (pH 7.4) with 2% SDS was added into the mixture with same volume, followed by pipetting. The solution was centrifuged at 3000 rpm at 4 °C and 30 μL of the supernatant was loaded on agarose gel to check the effect of drugs on DNA molecule.

MCF-7 cells [3] = experiment: Annexin V/propidium iodide FACS assay; assay type: cell-based
Experimental: The assay is based on the ability of the protein annexin V to bind to phosphatidylserine (PS) exposed on the outer membrane leaflet in apoptotic cells (PS also appears on the necrotic cell surface). The annexin V assay was performed following the manufacturer’s instructions (Annexin V-FITC kit,Alexa Fluor). Briefly, the cells were washed with PBS and suspended in pre-diluted binding buffer. The cell density was adjusted to 2 million and 195 μl of cell suspension were mixed with 5 μl Annexin V-FITC and incubated for 10 min in the dark at room temperature. The cells were washed with binding buffer, re-suspended in 195 μl binding buffer, counterstained with 10 μl of the 20 μg/ml propidium iodide stock (final concentration 1 μg/ml) and the data were acquired by BD FACS diva 7.0 at 6 h, 12 h and 24 h.

MCF-7 cell lysate = experiment: Chemical proteomics target deconvolution with polymer-immobilized 5l; assay type: binding, Human; conditions: differential proteins common to three experiments, MS
Experimental: 5l was provided as a lyophilized powder. A 100 mM stock of 5l was made in DMSO. The stock solution was diluted to 215 μM in 1 mM of phosphate buffer in pH 6.0 and incubated with the matrix for 16 hrs at room temperature. After incubation, the matrix was washed five times with Phosphate buffer. The amount of molecule in the phosphate buffer wash was quantified by HPLC-UV based method and amount of molecule retained on the matrix was calculated.
Cell lysates were prepared in RIPA buffer and protein concentration was determined by Bradford method. Cell lysate was diluted with 1X TBS to a concentration of 1 mg/ml. The 5l immobilized matrix was incubated with 2 ml of cell lysate for 2 min with mild shaking. The matrix was washed with 1X TBS to remove unbound proteins and to reduce non-specific interactions. The molecule bound proteins were then recovered by acetone precipitation and was dissolved in 1X sample buffer. Proteins were separated on a 4–12% gradient gel and bands were digested by standard “in-gel” trypsin digestion methods. […]
Agilent Mass Hunter software was used for data acquisition and analysis of Total ion chromatograms. […] The peptide sequence was also analysed for variable modifications such as methionine oxidation, acetylation, cysteine sulfoxide, deamidation and pyro glutamic acid modification.

O=C1Nc2ccccc2C12CCNC2c1ccccc1 (stereo not shown) [Compound 5l]
Effect on proliferation of healthy MCF10A cells (MCF10A cells): did not inhibit the proliferation; also recorded: little or no effect | CTRL-TST/CTRL*100 MCF10A cytotoxicity (MCF10A cells; 48 hours, 595 nm): 0.08 | Percentage inhibition MCF10A (MCF10A cells; MTT, 48 hours): 0.08% | Inhibition of cell migration of MCF-7 cells (MCF-7 cells [1]): inhibit cell migration | DNA fragmentation pattern / mode of cell death (MCF-7 cells [2]): smearing of DNA fragments | Mode of cell death by Annexin-PI FACS (MCF-7 cells [3]): necrosis was also confirmed | Putative cellular binding targets (MCF-7 cell lysate): HDAC2 and Prohibitin 2 are considered top priority targets
